These are literature values, as cited in patent US20220001038A1, “CONJUGATES FOR DETECTION OF AXILLARY LYMPH NODE METASTASES” (H. LEE MOFFITT CANCER CENTER AND RESEARCH INSTITUTE, INC., priority 2017, published 2022).

The test system of the series is hCA IX and XII.

In the case of `[N-]=[N+]=NCCCCCCOc1ccc(-c2nn(-c3ccccc3)cc2-c2nc3ccccc3[nH]2)cc1` [compound 6], the “affinity/selectivity for CAIX and CAXII (in words)” value is “inhibitor with hCA IX and XII selectivity”.
